Reference: patent US20130183239A1, “ISOTOPIC CARBON CHOLINE ANALOGS” (IMPERIAL COLLEGE, priority 2010, published 2013)
Like-named read-outs stand apart in the source and are kept apart here.

Key:
[1] = mouse, in vivo
Protocol: (§1) Radiolabeled metabolites from plasma and tissues were quantified using a method adapted from Smith G, Zhao Y, Leyton J, et al. Radiosynthesis and pre-clinical evaluation of [(18)F]fluoro-[1,2-(2)H(4)]choline. Nucl Med Biol. 2011; 38:39-51. Briefly, tumor-bearing mice under terminal anaesthesia were administered a bolus i.v. injection of one of the following radiotracers: ^11C-choline, ^11C-D4-choline (˜18.5 MBq) or ^18F-D4-choline (˜3.7 MBq), and sacrificed by exsanguination via cardiac puncture at 2, 15, 30 or 60 min post radiotracer injection. For automated radiosynthesis methodology, see Example 22. Tumor, kidney and liver samples were immediately snap-frozen in liquid nitrogen. Aliquots of heparinized blood were rapidly centrifuged (14000 g, 5 min, 4° C.) to obtain plasma. Plasma samples were subsequently snap-frozen in liquid nitrogen and kept on dry ice prior to analysis.
(§2) For analysis, samples were thawed and kept at 4° C. immediately before use. To ice cold plasma (200 μl) was added ice cold methanol (1.5 mL) and the resulting suspension centrifuged (14000 g; 4° C.; 3 min). The supernatant was then decanted and evaporated to dryness on a rotary evaporator (bath temperature, 40° C.), then resuspended in HPLC mobile phase (Solvent A: acetonitrile/water/ethanol/acetic acid/1.0 M ammonium acetate/0.1 M sodium phosphate [800/127/68/2/3/10]; 1.1 mL). Samples were filtered through a hydrophilic syringe filter (0.2 μm filter; Millex PTFE filter, Millipore, Mass., USA) and the sample (˜1 mL) then injected via a 1 mL sample loop onto the HPLC for analysis. Tissues were homogenized in ice-cold methanol (1.5 mL) using an Ultra-Turrax T-25 homogenizer (IKA Werke GmbH and Co. KG, Staufen, Germany) and subsequently treated as per plasma samples.
(§3) Samples were analyzed on an Agilent 1100 series HPLC system (Agilent Technologies, Santa Clara, Calif., USA), configured as described above, using the method of Leyton J, Smith G, Zhao Y, et al. [18F]fluoromethyl-[1, 2-2H4]-choline: a novel radiotracer for imaging choline metabolism in tumors by positron emission tomography. Cancer Res. 2009; 69:7721-7728. A μBondapak C18 HPLC column (Waters, Milford, Mass., USA; […]), stationary phase and a mobile phase comprising of Solvent A (vide supra) and Solvent B (acetonitrile/water/ethanol/acetic acid/1.0 M ammonium acetate/0.1 M sodium phosphate (400/400/68/44/88/10)), delivered at a flow rate of 3 mL/min were used for analyte separation. The gradient was set as follows: 0% B for 5 min; 0% to 100% B in 10 min; 100% B for 0.5 min; 100% to 0% B in 2 min; 0% B for 2.5 min.
(§4) A 2-tissue irreversible compartmental model was employed to fit the TACs, as has been previously established for ^11C-choline (Kenny L M, Contractor K B, Hinz R, et al. Reproducibility of [11C]choline-positron emission tomography and effect of trastuzumab. Clin Cancer Res. Aug. 15 2010; 16(16):4236-4245; and Sutinen E, Nurmi M, Roivainen A, et al. Kinetics of [(11)C]choline uptake in prostate cancer: a PET study. Eur J Nucl Med Mol. Imaging. March 2004; 31(3):317-324). An estimate of the whole blood TAC (wbTAC(t)) was derived from the PET image itself, as described above. […] Therefore it was fitted with a sum of 3 exponentials from the peak on and the fitted function was used as input function in the kinetic modeling (after metabolite correction, see below). […] The pf values were fitted to a sum of two exponentials with the constraint pf(t=0)=1 to obtain the function pf(t).

HCT116 tumors [2] = conditions: HCT116 tumors, dynamic PET
Protocol: Dynamic ^11C-choline, ^11C-D4-choline and ^18F-D4-choline imaging scans were carried out on a dedicated small animal PET scanner (Siemens Inveon PET module, Siemens Medical Solutions USA, Inc., Malvem, Pa., USA) following a bolus i.v. injection in tumor-bearing mice of either ˜3.7 MBq for ^18F studies, or ˜18.5 MBq for ^11C. Dynamic scans were acquired in list mode format over 60 min. The acquired data were then sorted into 0.5 mm sinogram bins and 19 time frames for image reconstruction (4×15 s, 4×60 s, and 11×300 s), which was done by filtered back projection. For input function analysis, data were sorted into 25 time frames for image reconstruction (8×5 s, 1×20 s, 4×40 s, 1×80 s, and 11×300 s). The Siemens Inveon Research Workplace software was used for visualization of radiotracer uptake in the tumor; 30 to 60 min cumulative images of the dynamic data were employed to define 3-dimensional (3D) regions of interest (ROIs). Arterial input function was estimated as follows: a single voxel 3D ROI was manually drawn in the center of the heart cavity using 2 to 5 min cumulative images. Care was taken to minimize ROI overlap with the myocardium. The count densities were averaged for all ROIs at each time point to obtain a time versus radioactivity curve (TAC). Tumor TACs were normalized to injected dose, measured by a VDC-304 dose calibrator (Veenstra Instruments, Joure, The Netherlands), and expressed as percentage injected dose per mL tissue. The area under the TAC, calculated as the integral of % ID/mL from 0-60 min, and the normalized uptake of radiotracer at 60 min (% ID/mL60) were also used for comparisons.
as §4, with “pf(t). The parent whole blood TAC wbTACPAR(t) was then computed by multiplying wbTAC(t) and pf(t) and used as input function to estimate the parameters K1 (mL/cm^3/min), k2 (1/min), k3 (1/min) and Vb (unitless). The steady state net irreversible uptake rate constant Ki (mL/cm^3/min) was calculated from the estimated microparameters as K1k3/(k2+k3).” for “pf(t).”

[3] = mouse, in vivo; remark: listed apart in the source
Protocol: ^11C-choline, ^11C-D4-choline (˜18.5 MBq) and ^18F-D4-choline (˜3.7 MBq) were each injected via the tail vein of anaesthetized BALB/c nude mice. The mice were maintained under anesthesia and sacrificed by exsanguination via cardiac puncture at 2, 15, 30 or 60 min post radiotracer injection to obtain blood, plasma, heart, lung, liver, kidney and muscle. Tissue radioactivity was determined on a gamma counter (Cobra II Auto-Gamma counter, Packard Biosciences Co, Pangbourne, UK) and decay corrected. Data were expressed as percent injected dose per gram of tissue.
Time course biodistribution was performed in non-tumor-bearing male nude mice with ^11C-choline, ^11C-D4-choline and ^18F-D4-choline tracers.

HCT116 tumors [4] = conditions: mouse, in vivo
Protocol: as §1, §2, §3
^11C-choline, ^11C-D4-choline and ^18F-D4-choline metabolism were measured in HCT116 tumors (FIG. 22).

[5] = tested on: human melanoma (A375), prostate (PC3-M) and colon (HCT116) cancer cell lines; assay: In vitro 18F-D4-choline uptake in cancer cell lines; assay type: cell-based; conditions: hemicholinium-3 5 mM, 18F-D4-choline uptake, all three cell lines
Protocol: Uptake was measured in vehicle-treated (closed symbols) and hemicholinium-3-treated cells (5 mM; open symbols). Mean values+SEM are shown (n=3). Insert: representative western blot of choline kinase-α expression in the three cell lines. Actin was used as a loading control. Abbreviations: CKα, choline kinase alpha.
Cells (5×10^5) were plated into 6-well plates the night prior to analysis. On the day of the experiment, fresh growth medium, containing 40 μCi ^18F-D4-choline, was added to individual wells. Cell uptake was measured following incubation at 37° C. in a humidified atmosphere of 5% CO2 for 60 min. Plates were subsequently placed on ice, washed 3 times with ice-cold PBS and lysed in RIPA buffer (Thermo Fisher Scientific Inc., Rockford, Ill., USA; 1 mL, 10 min). […] Aliquots were snap-frozen and used for protein determination following radioactive decay using a BCA 96-well plate assay (Thermo Fisher Scientific Inc., Rockford, Ill., USA). Data were expressed as percent of total radioactivity per mg protein. For hemicholinium-3 treatment (5 mM; Sigma-Aldrich), cells were incubated with the compound 30 min prior to addition of radioactivity and for the duration of the uptake time course. […]

Row | liver radioactivity as betaine [1] [%] | increase in kidney retention compared to 11C-choline [3] [fold] | tumor betaine-to-phosphocholine metabolite ratio increase compared to 18F-D4-choline (HCT116 tumors [4]) [%] | tumor radioactivity corresponding to phosphocholine (HCT116 tumors [4]) [%] | liver radioactivity as betaine ([1]; BALB/c nude, 2 min) [%] | plasma radioactivity in the form of betaine ([1]; BALB/c nude, 2 min) [%] | plasma radioactivity in the form of betaine ([1]; BALB/c nude, 15 min) [%] | tumor betaine-to-phosphocholine metabolite ratio increase compared to 18F-D4-choline (HCT116 tumors [4]; BALB/c nude) [%] | increase in the ratio of betaine:phophocholine in comparison to 18F-D4-choline (HCT116 tumors [4]; BALB/c nude, 15 min) [%] | tumor radioactivity corresponding to phosphocholine (HCT116 tumors [4]; BALB/c nude, 15 min) [%] | increase in the ratio of betaine:phophocholine in comparison to 18F-D4-choline (HCT116 tumors [4]; BALB/c nude, 60 min) [%] | tumor betaine radioactivity (HCT116 tumors [4]; BALB/c nude, 60 min) [%] | Structure (SMILES) | tumor tracer kinetics between 30 and 60 min (HCT116 tumors [2]) | urinary excretion [3] | decrease in intracellular tracer radioactivity [5] [%]
1 | 24.5±2.1 | 1.8 | 259 | 43.8±1.5 | – | – | – | – | – | – | – | – | [2H]C([2H])(O)C([2H])([2H])[N+](C)(C)[11CH3] [^11C-D4-choline, ^11C-[1,2-^2H4]choline] | Slow wash-out of activity | trend towards increased urinary excretion | –
2 | – | – | – | – | 49.2±7.7 | 12.1±2.6 | 78.6±4.4 | 388 | 388 | 30.5±4.0 | 230 | 28.1±2.9 | C[N+](C)([11CH3])CCO [^11C-choline, reference compound] | gradual accumulation | – | –
3 | – | – | – | – | – | – | – | – | – | – | – | – | C[N+]1(C)CCOC(O)(c2ccc(-c3ccc(C4(O)C[N+](C)(C)CCO4)cc3)cc2)C1.[Br-].[Br-] (stereo not shown) [hemicholinium-3, reference compound] | – | – | > 90
